Tests used:
Assay in all cases: Test D controlled growth environment herbicide test, pre- and postemergence
Assay type in all cases: in vivo
[1] = test system: barley, winter (winter barley, Hordeum vulgare)
In short: (§1)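 Pre-emergence: seeds sown in silt loam soil were sprayed with compound in a non-phytotoxic solvent mix containing surfactant. Post-emergence: plants at 2 to 18 cm (1- to 4-leaf stage) in peat moss/vermiculite medium got the same formulation. Visual 0–100 rating versus controls after 14 to 21 d.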

[2] = test system: blackgrass (Alopecurus myosuroides)
In short: as §1

[3] = test system: bluegrass (annual bluegrass, Poa annua)
In short: as §1

[4] = test system: bromegrass, downy (downy bromegrass, Bromus tectorum)
In short: as §1

[5] = test system: buckwheat, wild (wild buckwheat, Polygonum convolvulus)
In short: as §1

[6] = test system: canarygrass (Phalaris minor)
In short: as §1

[7] = test system: foxtail, green (green foxtail, Setaria viridis)
In short: as §1

[8] = test system: galium (catchweed bedstraw, Galium aparine)
In short: as §1

[9] = test system: lambsquarters (Chenopodium album)
In short: as §1

[10] = test system: pigweed (Amaranthus retroflexus)
In short: as §1

[11] = test system: ryegrass, Italian (Italian ryegrass, Lolium multiflorum)
In short: as §1

[12] = test system: wheat, spring (spring wheat, Triticum aestivum)
In short: as §1

[13] = test system: windgrass (Apera spica-venti)
In short: as §1

[14] = Postemergence, 31 g ai/ha, scale 0 to 100 (0 no effect, 100 complete control)
[15] = Postemergence, 125 g ai/ha, visual rating on scale 0 (no effect) to 100 (complete control), 14 to 21 d
[16] = Postemergence, 250 g ai/ha, scale 0 to 100 (0 no effect, 100 complete control)
[17] = Preemergence, 62 g ai/ha, scale 0 to 100 (0 no effect, 100 complete control)
[18] = Preemergence, 125 g ai/ha, scale 0 to 100 (0 no effect, 100 complete control)
[19] = Preemergence, 250 g ai/ha, scale 0 to 100, 0 no effect, 100 complete control
[20] = postemergence, 62 g ai/ha, scale 0 to 100, 0 no effect, 100 complete control

Cc1nn(C)c(=O)c(-c2c(C)sc3c(C)cc(Cl)cc23)c1O [Compound 35]
20: Plant response rating (scale of 0 to 100), Bromegrass, Downy ([4]; Preemergence, 31 g ai/ha) | Plant response rating, Buckwheat, Wild [5, 17] | Plant response rating, Buckwheat, Wild [5, 18] | Canarygrass plant response rating [6, 14] | Plant response rating, Wheat, Spring [12, 20]
5: Bromegrass, Downy plant response rating [4, 14] | Plant response rating, Wheat, Spring [12, 18]
50: Plant response rating (scale of 0 to 100), Foxtail, Green ([7]; Preemergence, 31 g ai/ha)
40: Plant response rating, Bluegrass [3, 16]
15: Plant response rating, Barley, Winter [1, 16] | Plant response rating (scale of 0 to 100), Buckwheat, Wild ([5]; Preemergence, 31 g ai/ha) | Wheat, Spring plant response rating [12, 14]
55: Plant response rating, Bromegrass, Downy [4, 18]
65: Plant response rating, Blackgrass [2, 20] | Plant response rating, Bromegrass, Downy [4, 19] | Plant response rating, Foxtail, Green [7, 18] | Ryegrass, Italian plant response rating [11, 14] | Plant response rating, Windgrass [13, 20]
70: Plant response rating, Canarygrass [6, 15] | Plant response rating (scale of 0 to 100), Lambsquarters ([9]; Preemergence, 31 g ai/ha) | Plant response rating, Windgrass [13, 15]
35: Bluegrass plant response rating [3, 14] | Plant response rating, Bluegrass [3, 15] | Plant response rating, Bluegrass [3, 18] | Plant response rating, Buckwheat, Wild [5, 19]
30: Blackgrass plant response rating [2, 14] | Plant response rating, Bromegrass, Downy [4, 16] | Plant response rating, Bromegrass, Downy [4, 17] | Plant response rating, Canarygrass [6, 20] | Plant response rating, Wheat, Spring [12, 16] | Plant response rating, Wheat, Spring [12, 19]
0: Plant response rating, Barley, Winter [1, 14] | Plant response rating, Barley, Winter [1, 15] | Plant response rating (scale of 0 to 100), Barley, Winter ([1]; Preemergence, 31 g ai/ha) | Plant response rating, Barley, Winter [1, 17] | Plant response rating, Barley, Winter [1, 18] | Barley, Winter plant response rating [1, 19] | Plant response rating, Barley, Winter [1, 20] | Plant response rating (scale of 0 to 100), Wheat, Spring ([12]; Preemergence, 31 g ai/ha) | Plant response rating, Wheat, Spring [12, 17]
95: Blackgrass plant response rating [2, 19] | Buckwheat, Wild plant response rating [5, 14] | Plant response rating, Canarygrass [6, 18] | Plant response rating, Foxtail, Green [7, 15] | Plant response rating, Foxtail, Green [7, 16] | Plant response rating, Galium [8, 15] | Plant response rating, Galium [8, 18] | Plant response rating, Pigweed [10, 17] | Plant response rating, Windgrass [13, 17]
80: Plant response rating, Canarygrass [6, 16] | Plant response rating (scale of 0 to 100), Galium ([8]; Preemergence, 31 g ai/ha) | Pigweed plant response rating [10, 14] | Plant response rating, Pigweed [10, 20] | Plant response rating, Ryegrass, Italian [11, 15]
85: Plant response rating, Blackgrass [2, 16] | Plant response rating, Blackgrass [2, 17] | Plant response rating, Blackgrass [2, 18] | Plant response rating, Canarygrass [6, 17] | Plant response rating, Galium [8, 17] | Plant response rating, Pigweed [10, 15] | Plant response rating, Ryegrass, Italian [11, 17] | Plant response rating, Windgrass [13, 16]
45: Bluegrass plant response rating [3, 19] | Plant response rating, Foxtail, Green [7, 17]
98: Plant response rating, Canarygrass [6, 19] | Galium plant response rating [8, 14] | Plant response rating, Galium [8, 20] | Plant response rating, Lambsquarters [9, 15] | Plant response rating, Lambsquarters [9, 16] | Plant response rating, Lambsquarters [9, 17] | Plant response rating, Pigweed [10, 16]
25: Plant response rating (scale of 0 to 100), Bluegrass ([3]; Preemergence, 31 g ai/ha) | Plant response rating, Bluegrass [3, 17] | Plant response rating, Bluegrass [3, 20] | Plant response rating, Bromegrass, Downy [4, 15] | Plant response rating, Bromegrass, Downy [4, 20] | Plant response rating (scale of 0 to 100), Pigweed ([10]; Preemergence, 31 g ai/ha) | Plant response rating, Wheat, Spring [12, 15] | Windgrass plant response rating [13, 14] | Plant response rating (scale of 0 to 100), Windgrass ([13]; Preemergence, 31 g ai/ha)
75: Plant response rating, Blackgrass [2, 15] | Plant response rating (scale of 0 to 100), Blackgrass ([2]; Preemergence, 31 g ai/ha) | Plant response rating (scale of 0 to 100), Canarygrass ([6]; Preemergence, 31 g ai/ha) | Foxtail, Green plant response rating [7, 14] | Lambsquarters plant response rating [9, 14] | Plant response rating (scale of 0 to 100), Ryegrass, Italian ([11]; Preemergence, 31 g ai/ha) | Plant response rating, Ryegrass, Italian [11, 20]
100: Plant response rating, Buckwheat, Wild [5, 15] | Plant response rating, Buckwheat, Wild [5, 16] | Plant response rating, Buckwheat, Wild [5, 20] | Plant response rating, Foxtail, Green [7, 19] | Plant response rating, Galium [8, 16] | Plant response rating, Galium [8, 19] | Plant response rating, Lambsquarters [9, 18] | Plant response rating, Lambsquarters [9, 19] | Plant response rating, Lambsquarters [9, 20] | Plant response rating, Pigweed [10, 18] | Plant response rating, Pigweed [10, 19] | Plant response rating, Ryegrass, Italian [11, 18] | Plant response rating, Ryegrass, Italian [11, 19] | Plant response rating, Windgrass [13, 18] | Plant response rating, Windgrass [13, 19]
90: Plant response rating, Foxtail, Green [7, 20] | Plant response rating, Ryegrass, Italian [11, 16]
